This passage reports cytotoxicity results from ChEMBL document CHEMBL3507680, “University of Dundee, Gates Library screen for HepG2 cell viability”.

This data set can be described thus: Human HepG2 cell viability assay in 384 well format. The following applies: HepG2 cells, read-out: Inhibition. Set-up: dose 125 nL, time 70.5 hour; cytotoxicity at 70.5 h: concentration not given beside the values. It is filed as toxicity, cell-based.
As to `O=C(N1CCOCC1)N1CCCC2(CCCNC2)C1` (stereo not given), the cytotoxicity at 70.5 h amounted to 8.83%.
`CCOC1CC2(CCN(Cc3cccn3C)CC2)C1`: the cytotoxicity at 70.5 h stood at 2.31%.
Take `COc1ccccc1-c1nnc([C@H]2CCN(C(C)=O)C2)o1`: the cytotoxicity at 70.5 h is -6.37%.
As to `CN(C(=O)Cc1ccc(F)cc1)C1CCN(c2ccccn2)CC1`, the cytotoxicity at 70.5 h is -1.36%.
In the case of `Cc1nc(C)n(CC2CCCCN2CCOc2cccc(C#N)c2)n1` (stereo not given) it was -7.98%.
For `CN(C)c1cc(CNC(=O)Nc2ccc(C#N)cc2)ccn1`, the cytotoxicity at 70.5 h is -11.3%.
For the compound `CN(C)S(=O)(=O)N1CCC(Cn2cccn2)CC1`, the cytotoxicity at 70.5 h was -7.21%.
For the compound `CCc1nnc2n1CCN(CC(=O)Nc1cc(C(C)(C)C)nn1C)C2`, the cytotoxicity at 70.5 h was 0.0813%.
Take `O=C(NCC1(O)CCOc2ccccc21)Nc1ccc2c(c1)OCO2` (stereo not given): the cytotoxicity at 70.5 h is 0.267%.
With `Cc1cccc(CNC(CN2CCN(C)CC2)c2ccccc2)c1` (stereo not given) the figure was 10.9%; with `NC(=O)C1CCN(C(=O)c2ccn(-c3ccc(F)cc3)n2)C1` (stereo not given), -1.48%; with `Cc1cc(C)c(CNC(=O)N2CCN(c3ccccn3)CC2)c(=O)[nH]1`, 0.786%.
For `CC(C)=CCN1CCN(C(=O)COc2ccccc2)[C@H]2CS(=O)(=O)C[C@H]21`, the cytotoxicity at 70.5 h is 1.61%.
`Cc1c(CN2CCCC2(C)C(=O)NC2CCCC2)cnn1C` (stereo not given): the cytotoxicity at 70.5 h came out at 5.02%.
Consider `CN(C)CCN1C[C@@H]2CN(c3ccccc3)C[C@@H]2C1=O`, for which the cytotoxicity at 70.5 h was 23.6%.
With `CCCC(=O)NC1CCc2c(ccc(=O)n2Cc2csc(C)n2)C1` (stereo not given) the figure was -12.5%; with `CN(Cc1ccco1)Cc1cnc2n1CCN(c1ncccn1)CC2`, -9.53%; with `CCC(=O)N1CCC2(COCc3cnc(N4CCOCC4)nc32)C1` (stereo not given), 1.55%.
As for `O=C(O)c1ccc(C2CCCN(Cc3ccc(-c4cc[nH]n4)o3)C2)cc1` (stereo not given), the cytotoxicity at 70.5 h came out at 16.9%.
In the case of `CCn1c(C2CCCN(S(=O)(=O)C3CC3)C2)nn(CCN(C)C)c1=O` (stereo not given) it was 0.856%; in that of `Cc1nn(C)cc1C(=O)N1CCCN(C2Cc3ccccc3C2)CC1`, 14.3%; in that of `CC(Cn1cccn1)NCc1nc(-c2cccc(Cl)c2)no1` (stereo not given), 7.24%.
With `O=C(CCC1CCCC1)NCCn1nc(C2CCNC2)c2cccnc21` (stereo not given) the figure was -14.1%; with `COc1ccc(C2CC(=O)Oc3cc(C)[nH]c(=O)c32)c(OC)c1` (stereo not given), -19.2%.
With `O=C(Cc1cccc(F)c1)NCCNCC1CNc2ccnn2C1` (stereo not given), the cytotoxicity at 70.5 h came out at 15.5%.
Regarding `COc1ncccc1C(=O)Nc1cccc(C[S+](C)[O-])c1C` (stereo not given), the cytotoxicity at 70.5 h is -6.07%.
Take `Cc1cc(CNCC2(O)CCOCC2)ccc1F`: the cytotoxicity at 70.5 h was -0.741%.
In the case of `CCN(CC)C(=O)CSc1nc2cc(C)nc-2c(O)n1CC` it was 6.98%; in that of `Cc1nsc2ncc(C(=O)N3CCCC3c3cnn(C)c3)cc12` (stereo not given), -0.553%; in that of `CN(C(=O)NCCN1CCOCC1)C1CCN(c2ccccc2)C1=O` (stereo not given), -14.1%.
For the compound `O=C(NCC1(N2CCOCC2)CCSC1)Nc1ccc(F)cc1` (stereo not given), the cytotoxicity at 70.5 h was -6.94%.
Take `Cc1nsc(N2CCCN(C(=O)c3ccc4[nH]ccc4c3)CC2)n1`: the cytotoxicity at 70.5 h is -3.86%.
Turning to `COc1ccnc(N2CCN(C(=O)Cc3csc(C)n3)CC2)n1`, the cytotoxicity at 70.5 h amounted to 1.2%.
With `COCCN1CCCCC12CC(=O)N(c1ccccc1OC)C2` (stereo not given) the figure was -2.67%; with `CN(C)C[C@@H]1C[C@@H]2CN(Cc3nccn3C)CC[C@@H]2N1CC1CC1`, -0.157%.
In the case of `Cc1cc(C(=O)N(C)S(C)(=O)=O)ccc1F`, the cytotoxicity at 70.5 h turned out to be 11.2%.
On to `CC(NC(=O)c1cccs1)C(=O)NS(=O)(=O)c1cccc(C#N)c1` (stereo not given), for which the cytotoxicity at 70.5 h came to 2.5%.
Regarding `CCc1nc(NC2CCCN(C(=O)c3cccs3)C2)c2cnn(C)c2n1` (stereo not given), the cytotoxicity at 70.5 h came to 7.73%.
For the compound `COCc1ccc(CNc2cnn(C(C)(C)C)c(=O)c2Cl)cc1`, the cytotoxicity at 70.5 h was 19.8%.
In the case of `Cc1cc(C(=O)N2CCN(C(=O)CCC3CCCCC3)CC2)n(C)n1` it was -18.7%; in that of `Cc1ncc(CN(C)CCO)c2cc(C(=O)c3ccc(Br)cc3)oc12`, -15.5%.
Take `CC1CCCCN1C(=O)c1nc2c(n1C(C)C)CCN(C(=O)C1CC1)C2` (stereo not given): the cytotoxicity at 70.5 h is -8.72%.
With `Cn1cncc1-c1nnc([C@H]2CCN(C3CCOCC3)C2)o1`, the cytotoxicity at 70.5 h was -3.04%.
In the case of `Cc1nnc(SCC(=O)c2cc3c(cc2Cl)NC(=O)C3)s1` it was -30.2%; in that of `CC(O)c1cccc(OCc2ccon2)c1` (stereo not given), -2.61%.
In the case of `CN1CCN(C2CCN(CCOc3cccc(Cl)c3)CC2)C1=O` it was -7.02%.
As for `CC(CN1CCOCC1)N(Cc1ccccc1)Cc1ccncc1` (stereo not given), the cytotoxicity at 70.5 h is -6.88%.
For the compound `COCCN1CCCC1c1ccnc(-c2ccccc2)n1` (stereo not given), the cytotoxicity at 70.5 h was -4.49%.
Take `COc1ccc(-n2nnc(C(=O)O)c2-c2ccccn2)cc1`: the cytotoxicity at 70.5 h was -14.5%.
Turning to `Cc1cnc(CN(C)C2CCN(Cc3nc4ccccc4s3)C2)o1` (stereo not given), the cytotoxicity at 70.5 h came to 51.7%.
Take `Cc1ccccc1CN1C[C@@H]2CC[C@H](C1)N(CC1CCC1)C2=O`: the cytotoxicity at 70.5 h was -4.63%.
With `COC(=O)N1CC2=CC(C)(C)COc3ccc(OC)c(c32)C1` the figure was 1.21%.
`CC(C)(C)n1ncc2c1CCCC2NCc1cccc(C(N)=O)c1` (stereo not given): the cytotoxicity at 70.5 h is 3.6%.
Turning to `Cc1occc1C(=O)NCC(=O)N1CCCC(c2ccccc2)CC1` (stereo not given), the cytotoxicity at 70.5 h is -3.67%.
With `CC(=O)Nc1ccc(-n2ccc3nc(N4CCCC4)ncc3c2=O)cc1` the figure was 1.42%.
Take `CCOCC1COCCC12CCN(C(=O)CCOC)CC2` (stereo not given): the cytotoxicity at 70.5 h was -17.1%.
As to `CNC(=O)c1ccc(C2CN(c3cc(C)nc(N)n3)CCO2)nc1` (stereo not given), the cytotoxicity at 70.5 h was 20%.
`O=C(c1cscn1)N1CCn2cnc(COCC3CC3)c2C1`: the cytotoxicity at 70.5 h is -4.79%.
Consider `Cc1cnn(CC2CN(Cc3nc(C)no3)CCO2)c1` (stereo not given), for which the cytotoxicity at 70.5 h was -1.3%.
With `c1cnc(OCc2nnc3n2CCN(CC2CC2)C3)nc1` the figure was 0.759%.
Turning to `Cc1nnc(N2CCCC3(CN(Cc4nccn4C)CCO3)C2)o1` (stereo not given), the cytotoxicity at 70.5 h was -0.85%.
In the case of `CC(C)[C@@H](C)NC(=O)N1CCn2nc(C(=O)NCCN(C)C)cc2C1` it was -0.748%; in that of `CC(=O)c1cc(CC(=O)N2CCN(S(=O)(=O)c3ccccc3)CC2)cs1`, -1.54%.
For the compound `CCc1nccn1C1CCCN(C(=O)CCCc2ccccn2)C1` (stereo not given), the cytotoxicity at 70.5 h was -2.48%.
For `Cc1cc(C)cc(N2CCN(C(=O)CCN3C[C@@H]4CC[C@H]3C4)CC2=O)c1`, the cytotoxicity at 70.5 h is -11.2%.
As for `CS(=O)(=O)NC1CC2(CCN(CC3CC3)CC2)Oc2ccccc21` (stereo not given), the cytotoxicity at 70.5 h worked out at 1.75%.
On to `NC(=O)CC1CCCCN1C(=O)c1ccc2cc[nH]c2c1` (stereo not given), for which the cytotoxicity at 70.5 h came to 21.6%.
With `COCC[C@]1(O)CCN(Cc2nc(C)c(C)s2)C[C@H]1C` the figure was -7.5%; with `COC(=O)NC1(C(=O)NCc2ccc(-c3ccn[nH]3)cc2)CCCC1`, -0.909%; with `CCc1ocnc1C(=O)N1CCN(c2nncc3ccccc23)CC1`, -19.4%.
